Experiments:
[1] = test system: normal human osteoblast NHOst; assay: Proliferation rate of osteoblasts cultured with metal salts (TetraColor ONE); format: cell-based; conditions: as concentration became higher; 2 weeks culture; control group = 100%; FIG. 1
Experimental: (§1) As a medium, α-MEM medium containing β-sodium glycerophosphate and fetal calf serum was used.
(§2) The cell culturing method was such that about 1×10^4 osteoblasts were seeded in each well in a collagen type I coated 24 well microplate. Then after 24 hours the product was replaced with 1 ml of medium containing a prescribed concentration of metal salts, after which it was further replaced with a medium containing the same concentration of metal salts three times per week, and the culturing was performed for 2 weeks.
The proliferation rate was measured as follows. 1 ml of medium containing 20 μl/ml of living cell measuring reagent, TetraColor ONE (Seikagaku Corporation) was added into each well. After 2 hours of culturing, the absorbency at 450 nm (control wavelength was 600 nm) was measured. The proliferation rate of the respective experimental groups was obtained assuming that the absorbancy of the control group was 100%.

[2] = test system: normal human osteoblast NHOst; assay: Differentiation rate of osteoblasts cultured with metal salts (calcium content per well); format: cell-based; conditions: as concentration became higher; 2 weeks culture; calcium content of control group = 100%; FIG. 2
Experimental: as §1, §2
The differentiation rate was measured as follows. 1 ml of 0.1N hydrochloric acid was added into each well and left at room temperature for 15 hours to obtain the hydrochloric acid extract of each well. Using calcium C-Test Wako (Wako Pure Chemical Industries, Ltd.), 10 μl of hydrochloric acid extract was added with 1 ml of 0.88 M monoethanolamine buffer (pH 11.0), then 100 μl of 0.63 mM ortho-cresolphthalein complexone and 100 μl of 69 mM 8-quinolinol. After 15 minutes of reaction at room temperature, the absorbancy at 570 nm was measured to determine the calcium content per well. The differentiation rate of the respective experimental groups was obtained assuming that the calcium content of the control group was 100%.

[Cl][Nb]([Cl])([Cl])([Cl])[Cl] [niobium pentachloride]
proliferation rate of osteoblasts [1]: increased the proliferation rate | differentiation rate of osteoblasts [2]: increased the differentiation rate

— patent publication US20060115458A1, “Material for repairing biological tissues, product for repairing biological tissues, and method of manufacturing material for repairing biological tissues” (OLYMPUS CORPORATION, priority 2004, published 2006)
